According to patent publication US6977246B2, “Certain dinucleotides and their use as modulators of mucociliary clearance and ciliary beat frequency” (Inspire Pharmaceuticals, Inc., priority 1997, dated 2005):
Where a name gives a salt, the structure may show the parent alone. Read-outs that look alike come from different tables or passages of the source.

Experiments:
P2Y6 receptor = P2Y6 receptor (Homo sapiens, UniProt Q15077); assay: inositol phosphate assay, P2Y6 receptor activity
Text: (§1) The pharmaceutical utility of compounds of this invention are indicated by the inositol phosphate assay for P2Y2 and other P2Y receptor activity. […] 116, 1619-27 (1995), relies on the measurement of inositol phosphate formation as a measurement of activity of compounds activating receptors linked via G-proteins to phospholipase C.

P2Y4 receptor = P2Y4 receptor (Homo sapiens, UniProt P51582); assay: inositol phosphate assay, P2Y4 receptor activity
Chain of P2Y4 receptor (P51582 whole entry): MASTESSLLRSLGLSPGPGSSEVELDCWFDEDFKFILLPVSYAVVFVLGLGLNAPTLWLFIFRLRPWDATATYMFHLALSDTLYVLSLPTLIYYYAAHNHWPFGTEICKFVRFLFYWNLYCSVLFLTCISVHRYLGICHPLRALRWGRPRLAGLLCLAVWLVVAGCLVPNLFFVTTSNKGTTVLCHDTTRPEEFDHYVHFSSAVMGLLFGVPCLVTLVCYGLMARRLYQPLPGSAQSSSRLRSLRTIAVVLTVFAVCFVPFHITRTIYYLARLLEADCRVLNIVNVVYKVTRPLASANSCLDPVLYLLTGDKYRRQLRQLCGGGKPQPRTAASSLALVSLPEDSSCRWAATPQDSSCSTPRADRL
Text: as §1

P2Y2 receptor = P2Y2 receptor (Homo sapiens, UniProt P41231); assay: inositol phosphate assay, P2Y2 receptor activity
Chain of P2Y2 receptor (P41231 whole entry): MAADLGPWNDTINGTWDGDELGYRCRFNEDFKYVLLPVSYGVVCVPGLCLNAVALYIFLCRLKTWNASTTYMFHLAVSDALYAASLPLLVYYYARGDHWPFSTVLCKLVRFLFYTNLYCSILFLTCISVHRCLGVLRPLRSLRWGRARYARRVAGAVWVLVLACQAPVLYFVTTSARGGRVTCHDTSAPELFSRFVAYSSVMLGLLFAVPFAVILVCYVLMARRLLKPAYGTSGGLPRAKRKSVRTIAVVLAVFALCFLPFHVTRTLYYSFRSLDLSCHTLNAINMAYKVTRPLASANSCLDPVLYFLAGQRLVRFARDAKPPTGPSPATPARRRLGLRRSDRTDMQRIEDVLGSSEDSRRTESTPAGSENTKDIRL
Text: as §1

P2Y1 receptor [1] = target: T1, P2Y1 receptor (Homo sapiens, UniProt P47900); assay: inositol phosphate assay, P2Y1 receptor activity; settings: inositol phosphate formation
T1 sequence (P47900 whole entry): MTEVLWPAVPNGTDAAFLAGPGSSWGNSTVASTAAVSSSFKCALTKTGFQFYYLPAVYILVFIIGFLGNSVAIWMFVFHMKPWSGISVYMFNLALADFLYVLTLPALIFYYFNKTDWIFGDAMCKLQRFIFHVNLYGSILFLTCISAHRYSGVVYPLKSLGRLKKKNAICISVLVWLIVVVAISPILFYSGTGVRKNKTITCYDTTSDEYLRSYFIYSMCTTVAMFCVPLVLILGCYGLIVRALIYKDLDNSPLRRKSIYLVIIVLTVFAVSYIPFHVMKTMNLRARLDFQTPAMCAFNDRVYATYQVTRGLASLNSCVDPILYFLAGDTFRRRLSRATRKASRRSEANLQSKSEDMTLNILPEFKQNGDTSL
Text: as §1

P2Y1 receptor [2] = target: T1, P2Y1 receptor; assay: cell-based
Text: as §1

[3] = normal volunteers; cited from earlier work
[4] = read-out: EC50 P2Y6, inositol phosphate formation
[5] = read-out: EC50 P2Y4, inositol phosphate formation
[6] = read-out: EC50 P2Y2, inositol phosphate formation

Chain of P2Y6 receptor (Q15077 whole entry): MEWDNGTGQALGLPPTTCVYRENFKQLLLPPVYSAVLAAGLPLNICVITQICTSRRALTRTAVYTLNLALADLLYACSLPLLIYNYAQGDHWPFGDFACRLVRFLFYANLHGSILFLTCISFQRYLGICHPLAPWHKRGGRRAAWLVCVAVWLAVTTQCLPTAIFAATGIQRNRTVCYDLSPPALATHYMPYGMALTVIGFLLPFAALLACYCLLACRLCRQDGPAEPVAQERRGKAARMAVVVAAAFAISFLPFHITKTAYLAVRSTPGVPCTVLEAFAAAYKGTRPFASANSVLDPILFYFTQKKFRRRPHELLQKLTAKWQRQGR

Row | Compound | EC50 (P2Y4 receptor) [nM] | EC50 (P2Y2 receptor) [nM] | EC50 (P2Y6 receptor) [nM] | further results
1 | 2′(3′)-Benzoyl-P^1,P^4-di(uridine 5′-)tetraphosphate [Example 15] |  |  |  | EC50 (P2Y6 receptor; [4]): 9710 nM; EC50 (P2Y4 receptor; [5]): 3720 nM; EC50 (P2Y2 receptor; [6]): 640 nM; EC50 P2Y1 (P2Y1 receptor [1]): IA (Response < 2-fold basal)
2 | O=c1ccn([C@@H]2O[C@H](COP(=O)(O)OP(=O)(O)CP(=O)(O)OP(=O)(O)OC[C@H]3O[C@@H](n4ccc(=O)[nH]c4=O)[C@H](O)[C@@H]3O)[C@@H](O)[C@H]2O)c(=O)[nH]1 [Example 1, P^1,P^4-Di(uridine 5′-)P^2,P^3-methylenetetraphosphate] | 11100 | > 100000 |  | EC50 P2Y6 (P2Y6 receptor; inositol phosphate formation): IA (Response < 2-fold basal); Percentage response of same study positive control, P2Y4 (P2Y4 receptor; inositol phosphate formation): 60%
3 | O=c1ccn([C@@H]2O[C@H](COP(=O)(O)OP(=O)(O)C(F)(F)P(=O)(O)OP(=O)(O)OC[C@H]3O[C@@H](n4ccc(=O)[nH]c4=O)[C@H](O)[C@@H]3O)[C@@H](O)[C@H]2O)c(=O)[nH]1 [Example 2, P^1,P^4-Di(uridine 5′-P^2,P^3-difluoromethylenetetraphosphate)] | 1000 | 5710 | > 100000 | Percentage response of same study positive control, P2Y4 (P2Y4 receptor; inositol phosphate formation): 80%
4 | O=c1ccn([C@@H]2O[C@H](COP(=O)(O)OP(=O)(O)NP(=O)(O)OP(=O)(O)OC[C@H]3O[C@@H](n4ccc(=O)[nH]c4=O)[C@H](O)[C@@H]3O)[C@@H](O)[C@H]2O)c(=O)[nH]1 [Example 3, P^1,P^4-Di(uridine 5′-P^2,P^3-imidotetraphosphate)] | 1190 | 630 | 2560 | EC50 (P2Y1 receptor [2]): 3670 nM
5 | O=c1[nH]c(=S)ccn1[C@@H]1O[C@H](COP(=O)(O)OP(=O)(O)OP(=O)(O)OP(=O)(O)OC[C@H]2O[C@@H](n3ccc(=S)[nH]c3=O)[C@H](O)[C@@H]2O)[C@@H](O)[C@H]1O [Example 4, P^1,P^4-Di(4-thiouridine 5′-tetraphosphate)] |  | 20 | 50 | Percentage response of same study positive control, P2Y6 (P2Y6 receptor; inositol phosphate formation): 20%
6 | O=c1ccn([C@@H]2O[C@H](COP(=O)(O)OP(=O)(O)OP(=O)(O)OP(=O)(O)OP(=O)(O)OC[C@H]3O[C@@H](n4ccc(=O)[nH]c4=O)[C@H](O)[C@@H]3O)[C@@H](O)[C@H]2O)c(=O)[nH]1 [Example 5, P^1,P^5-Di(uridine 5′-pentaphosphate)] | 2870 | 3800 | 92600 | Percentage response of same study positive control, P2Y2 (P2Y2 receptor; inositol phosphate formation): 80%; EC50 (P2Y1 receptor [2]): 31200 nM; Percentage response of same study positive control, P2Y1 (P2Y1 receptor [1]): 55%
7 | O=c1n([C@@H]2O[C@H](COP(=O)(O)OP(=O)(O)OP(=O)(O)OP(=O)(O)OC[C@H]3O[C@@H](n4ccc5nccn5c4=O)[C@H](O)[C@@H]3O)[C@@H](O)[C@H]2O)ccc2nccn12 [Example 6, P^1,P^4-Di(3,N^4-ethenocytidine 5′-)tetraphosphate] | 19800 | 460 |  | EC50 P2Y6 (P2Y6 receptor; inositol phosphate formation): IA (Response < 2-fold basal); Percentage response of same study positive control, P2Y4 (P2Y4 receptor; inositol phosphate formation): 75%; EC50 (P2Y1 receptor [2]): > 100000 nM
8 | O=c1n([C@@H]2O[C@H](COP(=O)(O)OP(=O)(O)OP(=O)(O)OP(=O)(O)OC[C@H]3O[C@@H](n4ccc5nc(-c6cccc([N+](=O)[O-])c6)cn5c4=O)[C@H](O)[C@@H]3O)[C@@H](O)[C@H]2O)ccc2nc(-c3cccc([N+](=O)[O-])c3)cn12 [Example 6a, P^1,P^4-Di(imidazo[1,2-c]pyrimidin-5(6H)-one-2-(3-nitro)-phenyl-6-β-D-ribofuranoside 5′-)tetraphosphate, tetraammonium salt] | 60 | 300 | 870 | 
9 | Cc1cn([C@H]2C[C@H](O)[C@@H](COP(=O)(O)OP(=O)(O)OP(=O)(O)OP(=O)(O)OC[C@H]3O[C@@H](n4ccc(=O)[nH]c4=O)[C@H](O)[C@@H]3O)O2)c(=O)[nH]c1=O [Example 7, P^1-(Thymidine-5′-)P^4-(uridine-5′-)tetraphosphate] | 200 | 110 | 880 | 
10 | O=c1ccn([C@@H]2O[C@H](COP(=O)(O)OP(=O)(O)OP(=O)(O)OP(=O)(O)OC[C@H]3O[C@@H](n4cnc5c(=O)[nH]cnc54)[C@H](O)[C@@H]3O)[C@@H](O)[C@H]2O)c(=O)[nH]1 [Example 8, P^1-(Inosine 5′-)P^4-(uridine 5′-)tetraphosphate] | 150 | 110 | 800 | 
11 | O=c1ccn([C@@H]2O[C@H](COP(=O)(O)OP(=O)(O)OP(=O)(O)OP(=O)(O)OC[C@H]3O[C@@H](n4ccc(=S)[nH]c4=O)[C@H](O)[C@@H]3O)[C@@H](O)[C@H]2O)c(=O)[nH]1 [Example 9, P^1-(4-Thiouridine 5′-)P^4-(uridine 5′-)tetraphosphate] | 4160 | 370 | 1790 | EC50 (P2Y1 receptor [2]): > 100000 nM
12 | Nc1ccn([C@@H]2O[C@H](COP(=O)(O)OP(=O)(O)OP(=O)(O)OP(=O)(O)OC[C@H]3O[C@@H](n4ccc(=O)[nH]c4=O)[C@H](O)[C@@H]3O)[C@@H](O)[C@@H]2O)c(=O)n1 [Example 10, P^1-(Cytosine β-D-arabinofuranoside 5′-)P^4-(uridine 5′-)tetraphosphate] | 320 | 190 | 1300 | Percentage response of same study positive control, P2Y4 (P2Y4 receptor; inositol phosphate formation): 65%
13 | O=c1ccn([C@@H]2O[C@H](COP(=O)(O)OP(=O)(O)OP(=O)(O)OP(=O)(O)OC[C@H]3O[C@@H](n4cnc5c(=O)[nH]c(=O)[nH]c54)[C@H](O)[C@@H]3O)[C@@H](O)[C@H]2O)c(=O)[nH]1 [Example 11, P^1-(Uridine 5′-)-P^4-(xanthosine 5′-)tetraphosphate] | 380 | 130 | 3390 | Percentage response of same study positive control, P2Y4 (P2Y4 receptor; inositol phosphate formation): 75%
14 | O=c1ccn([C@@H]2O[C@H](COP(=O)(O)OP(=O)(O)OP(=O)(O)OP(=O)(O)OC[C@H]3O[C@@H](n4ccc(=O)[nH]c4=O)C[C@@H]3O)[C@@H](O)[C@H]2O)c(=O)[nH]1 [Example 12, P^1-(2′-deoxyuridine 5′-)-P^4-(uridine 5′-)tetraphosphate] | 390 | 100 | 920 | 
15 | Cc1cn([C@H]2C[C@H](N=[N+]=[N-])[C@@H](COP(=O)(O)OP(=O)(O)OP(=O)(O)OP(=O)(O)OC[C@H]3O[C@@H](n4ccc(=O)[nH]c4=O)[C@H](O)[C@@H]3O)O2)c(=O)[nH]c1=O [Example 13, P^1-(3′-Azido-3′-deoxythymidine 5′-)-P^4-(uridine 5′-)tetraphosphate] | 130 | 200 | 540 | 
16 | O=c1ccn([C@@H]2O[C@H](COP(=O)(O)OP(=O)(O)OP(=O)(O)OP(=O)(O)OP(=O)(O)OP(=O)(O)OC[C@H]3O[C@@H](n4ccc(=O)[nH]c4=O)[C@H](O)[C@@H]3O)[C@@H](O)[C@H]2O)c(=O)[nH]1 [Example 14, P^1,P^6-Di(uridine-5′-)hexaphosphate] |  |  |  | EC50 (P2Y6 receptor; [4]): 3500 nM; EC50 (P2Y4 receptor; [5]): 14700 nM; EC50 (P2Y2 receptor; [6]): 10700 nM
17 | O=c1ccn([C@@H]2O[C@H](COP(=O)(O)OP(=O)(O)OP(=O)(O)O)[C@@H](O)[C@H]2O)c(=O)[nH]1 [UTP, uridine 5′-triphosphate] |  |  |  | improvement in lung mucociliary clearance [3]: 2.5 fold; side-effects [3]: without any significant side-effects
18 | P^1,P^4-Di(2′(3′)-benzoyl uridine 5′-)tetraphosphate [Example 16] |  |  |  | EC50 (P2Y6 receptor; [4]): 5330 nM; EC50 (P2Y4 receptor; [5]): 730 nM; EC50 (P2Y2 receptor; [6]): 790 nM; EC50 P2Y1 (P2Y1 receptor [1]): IA (Response < 2-fold basal)
